Measured values reported in paper PMC8102414 (Heliyon, 2021).
≈ marks a conversion by molar mass, not a printed value.

Experiments:
[1] = system: advanced glycation end products (AGEs); assay: Glycation inhibition assay; format: biochemical; conditions: Inactive at >100 μM; for IC50: read-out: Glycation inhibition (IC50)
3T3-L1 adipocyte cells = assay: Glucose consumption assay; format: cell-based; conditions: induction of glucose consumption, 3T3-L1 adipocyte cells; Inactive at >100 μM
RAW 264.7 cells = assay: Nitric oxide production inhibition assay; format: cell-based; conditions: for NO Inhibition (IC50, μM): LPS-stimulated NO production in RAW 264.7 cells, Inactive at >100 μM
[2] = system: Salmonella typhi DMST 22842; assay: microbe, parasite or virus in culture; format: cell-based; conditions: for MIC: Salmonella enterica, TYPHI, read-out: MIC (μg/mL) ST; for MIC (μg/mL) ST: Gram-negative, Salmonella typhi (DMST 22842), Inactive at >128 μg/mL
[3] = system: Enterococcus faecalis ATCC 29212; assay: Antimicrobial MIC, 2-fold serial dilution; conditions: for MIC: Enterococcus faecalis, ATCC29212, read-out: MIC (μg/mL) EF; for MIC (μg/mL) EF: Gram-positive, Enterococcus faecalis (ATCC 29212), Inactive at >128 μg/mL
[4] = system: Micrococcus luteus DMST 15503; assay: Antimicrobial MIC, 2-fold serial dilution; conditions: for MIC: Micrococcus luteus, DMST15503, read-out: MIC (μg/mL) MT; for MIC (μg/mL) MT: Gram-positive, Micrococcus luteus (DMST 15503), Inactive at >128 μg/mL
[5] = system: Shigella flexneri DMST 4423; assay: Antimicrobial MIC, 2-fold serial dilution; conditions: for MIC (μg/mL) SF: Gram-negative, Shigella flexneri (DMST 4423), Inactive at >128 μg/mL; for MIC: Shigella flexneri, DMST4423, read-out: MIC (μg/mL) SF
[6] = system: Pseudomonas aeruginosa ATCC 10145; assay: Antimicrobial MIC, 2-fold serial dilution; conditions: for MIC: Pseudomonas aeruginosa, ATCC10145, read-out: MIC (μg/mL) PA
[7] = system: Salmonella typhimurium DMST 562; assay: Antimicrobial MIC, 2-fold serial dilution; conditions: for MIC (μg/mL) STR: Gram-negative, Salmonella typhimurium (DMST 562), Inactive at >128 μg/mL; for MIC: Salmonella enterica, TYPHIMURIUM, read-out: MIC (μg/mL) STR
[8] = system: Escherichia coli TISTR 780; assay: Antimicrobial MIC, 2-fold serial dilution; conditions: for MIC (μg/mL) EC: Gram-negative, Escherichia coli (TISTR 780), Inactive at >128 μg/mL; for MIC: Escherichia coli, TISTR780, read-out: MIC (μg/mL) EC
[9] = system: Candida albicans ATCC 10231; assay: Antimicrobial MIC, 2-fold serial dilution; conditions: for MIC: Candida albicans, ATCC10231, read-out: MIC (μg/mL) CA; for MIC (μg/mL) CA: Fungi, Candida albicans (ATCC 10231), Inactive at >128 μg/mL
[10] = system: methicillin resistant Staphylococcus aureus NPRC 001R; assay: Antimicrobial MIC, 2-fold serial dilution; conditions: for MIC (μg/mL) MRSA: Gram-positive, Methicillin Resistant Staphylococcus aureus (NPRC 001R), Inactive at >128 μg/mL
[11] = system: Staphylococcus aureus ATCC 25923; assay: Antimicrobial MIC, 2-fold serial dilution; conditions: for MIC: Staphylococcus aureus, ATCC25923, read-out: MIC (μg/mL) SA; for MIC (μg/mL) SA: Gram-positive, Staphylococcus aureus (ATCC 25923), Inactive at >128 μg/mL
[12] = system: Streptococcus pyogenes ATCC, 19615; assay: Antimicrobial MIC, 2-fold serial dilution; conditions: for MIC (μg/mL) SP: Gram-positive, Streptococcus pyogenes (ATCC, 19615), Inactive at >128 μg/mL; for MIC: Streptococcus pyogenes, read-out: MIC (μg/mL) SP

Row | Compound | Glycation inhibition (IC50, μM) [1] | Glucose consumption (IC50, μM) (3T3-L1 adipocyte cells) | NO Inhibition (IC50, μM) (RAW 264.7 cells) | MIC [2] [µg/mL] | MIC [3] [µg/mL] | MIC (μg/mL) SF [5] | MIC [6] [µg/mL] | MIC (μg/mL) STR [7] | MIC (μg/mL) EC [8] | MIC (μg/mL) EF [3] | MIC (μg/mL) MT [4] | MIC (μg/mL) MRSA [10] | MIC [11] [µg/mL] | MIC (μg/mL) SP [12] | MIC [8] [µg/mL] | MIC (μg/mL) CA [9] | MIC (μg/mL) ST [2] | MIC (μg/mL) SA [11] | also measured
1 | CC(C)=CCc1c(O)ccc2c1O[C@H]1c3ccc(O)cc3OC[C@@H]21 [Compound 11, phaseollidin] | Inactive | Inactive | Inactive | 128 (≈ 395 µM) | 128 (≈ 395 µM) | Inactive | 128 (≈ 395 µM) | Inactive | Inactive | – | – | – | – | – | – | – | – | – | MIC [4]: 128 µg/mL (≈ 395 µM); MIC [9]: 128 µg/mL (≈ 395 µM)
2 | COc1cc(O)cc2oc(-c3ccccc3)cc(=O)c12 [Compound 18, 5-methoxy-7-hydroxyflavone] | Inactive | Inactive | Inactive | 128 (≈ 477 µM) | – | Inactive | 128 (≈ 477 µM) | Inactive | – | Inactive | Inactive | Inactive | 128 (≈ 477 µM) | Inactive | 128 (≈ 477 µM) | Inactive | – | – | –
3 | CN[C@H](CC(C)C)C(=O)N[C@H]1C(=O)N[C@@H](CC(N)=O)C(=O)N[C@H]2C(=O)N[C@H]3C(=O)N[C@H](C(=O)N[C@H](C(=O)O)c4cc(O)cc(O)c4-c4cc3ccc4O)[C@H](O)c3ccc(c(Cl)c3)Oc3cc2cc(c3O[C@@H]2O[C@H](CO)[C@@H](O)[C@H](O)[C@H]2O[C@H]2C[C@](C)(N)[C@H](O)[C@H](C)O2)Oc2ccc(cc2Cl)[C@H]1O [Vancomycin, vancomycin, reference compound] | – | – | – | – | 2 (≈ 1.38 µM) | – | – | – | – | – | – | – | 0.5 (≈ 0.345 µM) | – | – | – | – | – | MIC [4]: 2 µg/mL (≈ 1.38 µM); MIC ([10]; Staphylococcus aureus, MRSA, read-out: MIC (μg/mL) MRSA): 1 µg/mL (≈ 0.69 µM); MIC [12]: 2 µg/mL (≈ 1.38 µM); MIC [9]: 4 µg/mL (≈ 2.76 µM)
4 | CC(C)=CCc1cc(-c2coc3c(CC=C(C)C)c(O)ccc3c2=O)ccc1O [Compound 20, erysubin F] | Inactive | Inactive | Inactive | – | 128 (≈ 328 µM) | Inactive | – | Inactive | Inactive | – | Inactive | Inactive | – | Inactive | – | – | Inactive | – | MIC (μg/mL) PA ([6]; Gram-negative, Pseudomonas aeruginosa (ATCC 10145), Inactive at >128 μg/mL): Inactive
5 | O=c1c(O)c(-c2ccc(O)c(O)c2)oc2cc(O)cc(O)c12 [Quercetin, quercetin, reference compound] | – | – | – | – | – | – | – | – | – | – | – | – | – | – | – | – | – | – | IC50 [1]: 59.1 ± 0.78 µM
6 | O=C1C[C@@H](c2ccccc2)Oc2cc(O)cc(O)c21 [Compound 15, pinocembrin] | – | Inactive | Inactive | – | – | – | 128 (≈ 499 µM) | Inactive | – | Inactive | Inactive | Inactive | 128 (≈ 499 µM) | Inactive | 128 (≈ 499 µM) | Inactive | Inactive | – | IC50 [1]: 83.1 ± 0.94 µM; MIC [5]: 128 µg/mL (≈ 499 µM)
7 | O=c1c(O)c(-c2ccccc2)oc2ccc(O)cc12 [Compound 17, 3,6-dihydroxyflavone] | Inactive | Inactive | Inactive | – | – | Inactive | 128 (≈ 503 µM) | Inactive | Inactive | Inactive | Inactive | Inactive | 128 (≈ 503 µM) | Inactive | – | Inactive | Inactive | – | –
8 | CC(C)=CCc1cc([C@@H]2CC(=O)c3c(O)cc(O)cc3O2)cc(CC=C(C)C)c1O [Compound 25, abyssinone V] | Inactive | Inactive | Inactive | 128 (≈ 313 µM) | – | – | 128 (≈ 313 µM) | – | Inactive | Inactive | – | Inactive | 128 (≈ 313 µM) | – | – | Inactive | – | – | MIC [4]: 128 µg/mL (≈ 313 µM); MIC [12]: 128 µg/mL (≈ 313 µM); MIC [5]: 128 µg/mL (≈ 313 µM); MIC [7]: 128 µg/mL (≈ 313 µM)
9 | O=c1c(O)c(-c2ccc(O)cc2)oc2ccc(O)cc12 [Compound 16, 3,6,4′-trihydroxyflavone] | Inactive | Inactive | – | – | – | Inactive | 128 (≈ 474 µM) | Inactive | – | Inactive | Inactive | Inactive | 128 (≈ 474 µM) | Inactive | 128 (≈ 474 µM) | Inactive | Inactive | – | IC50 (RAW 264.7 cells; Mus musculus, RAW264.7, read-out: NO Inhibition (IC50, μM)): 96.2 ± 1.61 µM
10 | O=c1c(-c2ccc(O)cc2)coc2cc(O)cc(O)c12 [Compound 21, genistein] | Inactive | Inactive | Inactive | – | – | Inactive | 128 (≈ 474 µM) | Inactive | Inactive | Inactive | Inactive | Inactive | – | Inactive | – | Inactive | Inactive | Inactive | –
11 | COc1ccc2c3c(oc2c1CC=C(C)C)-c1ccc(O)cc1OC3 [Compound 3, eryvarin D] | Inactive | Inactive | Inactive | – | – | Inactive | 128 (≈ 381 µM) | – | – | Inactive | Inactive | Inactive | – | Inactive | 128 (≈ 381 µM) | Inactive | Inactive | Inactive | MIC [7]: 128 µg/mL (≈ 381 µM)
12 | O=c1oc2cc(O)ccc2c2oc3cc(O)ccc3c12 [Compound 6, coumestrol] | Inactive | Inactive | Inactive | 128 (≈ 477 µM) | 128 (≈ 477 µM) | – | 128 (≈ 477 µM) | Inactive | – | – | Inactive | – | – | Inactive | 128 (≈ 477 µM) | – | – | Inactive | MIC [5]: 128 µg/mL (≈ 477 µM); MIC [9]: 128 µg/mL (≈ 477 µM)
13 | COc1ccc(C=CC(=O)O)c(O)c1 [Compound 28, 2-hydroxy-4-methoxy-cinnamic acid] | Inactive | Inactive | Inactive | – | – | Inactive | 128 (≈ 659 µM) | Inactive | Inactive | Inactive | Inactive | Inactive | – | Inactive | – | Inactive | Inactive | Inactive | –
